Measurements taken from patent US20080274522A1, “METHOD FOR THE PRODUCTION OF 2-BUTANONE” (priority 2007, published 2008).

Experiments:
[1] = system: Lactobacillus plantarum PN0512; assay: Growth of L. plantarum PN0512 in the presence of butanols at different temperatures (OD600); type: cell-based; set-up: key to Growth of L. plantarum PN0512 in the presence of 1-butanol / Growth of L. plantarum PN0512 in the presence of isobutanol / Growth of L. plantarum PN0512 in the presence of 2-butanol: +: growth observed as an increase in OD600.; −: no growth observed, i.e. no change in OD600
Description: Tolerance levels of bacterial strain Lactobacillus plantarum PN0512 (ATCC # PTA-7727) were determined at 25° C., 30° C. and 37° C. as follows. The strain was cultured in S30L medium (i.e., 10 mM ammonium sulfate, 5 mM potassium phosphate buffer, pH 7.0, 50 mM MOPS, pH 7.0, 2 mM MgCl2, 0.7 mM CaCl2, 50 μM MnCl2, 1 μM FeCl3, 1 μM ZnCl2, 1.72 μM CuCl2, 2.53 μM COCl2, 2.42 μM Na2MoO4, 2 μM thiamine hydrochloride, 10 mM glucose, and 0.2% yeast extract). An overnight culture in the absence of any test compound was started in 15 mL of the S30L medium in a 150 mL flask, with incubation at 37° C. in a shaking water bath. The next morning, the overnight culture was diluted into three 500 mL flasks containing 150 mL of fresh medium to an initial OD600 of about 0.08. Each flask was incubated in a shaking water bath, one each at 25° C., 30° C. and 37° C. Each large culture was allowed to acclimate at the test temperature for at least 0.5 h. […] Growth was followed by measuring OD600 for six hours after addition of the compounds.

glycerol dehydratase = assay: Butanediol dehydratase activity of glycerol dehydratase; type: biochemical, Klebsiella pneumoniae; details: 10 mM meso-2,3-butanediol, 12 μM coenzyme B12, pH 8.2, 37° C., crude cell free extract of KLP23/pSYCO12
Excerpt: Glycerol dehydratase (E.C. 4.2.1.30) and diol dehydratase (E.C. 4.2.1.28), while structurally related, are often distinguished in the art based on various differences that include substrate specificity. […] The recombinant E. coli strain KLP23/pSYCO12, comprising Klebsiella pneumoniae genes encoding the multiple subunits of glycerol dehydratase (alpha: SEQ ID NO:145 (coding region) and 146 (protein); beta: SEQ ID NO: 147 (coding region) and 148 (protein); and gamma: SEQ ID NO: 149 (coding region) and 150 (protein)) and Klebsiella pneumoniae genes encoding the multiple subunits of glycerol dehydratase reactivase (large subunit, SEQ ID NO: 151 (coding region) and 152 (protein); and small subunit, SEQ ID NO: 153 (coding region) and 154 (protein)), is described in Emptage et al. U.S. Pat. No. 6,514,733 and in WO 2003089621, which are herein incorporated by reference. A crude, cell free extract of KLP23/pSYCO12 was prepared by methods known to one skilled in the art. […] The formation of 2-butanone was monitored by HPLC (Shodex SH-1011 column and SH-G guard column with refractive index detection; 0.01 M H2SO4 as the mobile phase at a flow rate of 0.5 mL/min and a column temperature of 50° C.; 2-butanone retention time=40.2 min). The rate of 2-butanone formation by the glycerol dehydratase preparation was determined to be 0.4 nmol/min/mg of crude protein.

[2] = system: B12-independent diol dehydratase; details: Hartmanis et al. (1986); cited from earlier work

CC(C)CO [isobutanol]
3.4%: Concentration in which growth was not observed ([1]; 37° C.)
+: Growth of L. plantarum PN0512 in the presence of isobutanol ([1]; 0.5 % w/v, 37° C.) | Growth of L. plantarum PN0512 in the presence of isobutanol ([1]; 1.0 % w/v, 37° C.) | Growth of L. plantarum PN0512 in the presence of isobutanol ([1]; 1.5 % w/v, 25° C.) | Growth of L. plantarum PN0512 in the presence of isobutanol ([1]; 1.5 % w/v, 30° C.) | Growth of L. plantarum PN0512 in the presence of isobutanol ([1]; 1.5 % w/v, 37° C.) | Growth of L. plantarum PN0512 in the presence of isobutanol ([1]; 1.6 % w/v, 37° C.) | Growth of L. plantarum PN0512 in the presence of isobutanol ([1]; 1.8 % w/v, 37° C.) | Growth of L. plantarum PN0512 in the presence of isobutanol ([1]; 2.0 % w/v, 25° C.) | Growth of L. plantarum PN0512 in the presence of isobutanol ([1]; 2.0 % w/v, 30° C.) | Growth of L. plantarum PN0512 in the presence of isobutanol ([1]; 2.0 % w/v, 37° C.) | Growth of L. plantarum PN0512 in the presence of isobutanol ([1]; 2.1 % w/v, 37° C.) | Growth of L. plantarum PN0512 in the presence of isobutanol ([1]; 2.3 % w/v, 37° C.) | Growth of L. plantarum PN0512 in the presence of isobutanol ([1]; 2.4 % w/v, 25° C.) | Growth of L. plantarum PN0512 in the presence of isobutanol ([1]; 2.4 % w/v, 30° C.) | Growth of L. plantarum PN0512 in the presence of isobutanol ([1]; 2.4 % w/v, 37° C.) | Growth of L. plantarum PN0512 in the presence of isobutanol ([1]; 2.7 % w/v, 25° C.) | Growth of L. plantarum PN0512 in the presence of isobutanol ([1]; 2.7 % w/v, 30° C.) | Growth of L. plantarum PN0512 in the presence of isobutanol ([1]; 2.7 % w/v, 37° C.) | Growth of L. plantarum PN0512 in the presence of isobutanol ([1]; 2.9 % w/v, 25° C.) | Growth of L. plantarum PN0512 in the presence of isobutanol ([1]; 2.9 % w/v, 30° C.) | Growth of L. plantarum PN0512 in the presence of isobutanol ([1]; 2.9 % w/v, 37° C.) | Growth of L. plantarum PN0512 in the presence of isobutanol ([1]; 3.1 % w/v, 25° C.) | Growth of L. plantarum PN0512 in the presence of isobutanol ([1]; 3.1 % w/v, 30° C.) | Growth of L. plantarum PN0512 in the presence of isobutanol ([1]; 3.1 % w/v, 37° C.) | Growth of L. plantarum PN0512 in the presence of isobutanol ([1]; 3.3 % w/v, 25° C.) | Growth of L. plantarum PN0512 in the presence of isobutanol ([1]; […] w/v, 25° C.) | Growth of L. plantarum PN0512 in the presence of isobutanol ([1]; […] w/v, 37° C.)
3.1%: Concentration in which growth was observed ([1]; 30° C.) | Concentration in which growth was observed ([1]; 37° C.)
3.5%: Concentration in which growth was observed ([1]; 25° C.)
3.3%: Concentration in which growth was not observed ([1]; 30° C.)
−: Growth of L. plantarum PN0512 in the presence of isobutanol ([1]; 3.4 % w/v, 37° C.) | Growth of L. plantarum PN0512 in the presence of isobutanol ([1]; 3.6 % w/v, 25° C.) | Growth of L. plantarum PN0512 in the presence of isobutanol ([1]; 3.8 % w/v, 37° C.) | Growth of L. plantarum PN0512 in the presence of isobutanol ([1]; 4.3 % w/v, 37° C.)
−^2: Growth of L. plantarum PN0512 in the presence of isobutanol ([1]; 3.3 % w/v, 30° C.)

CC(O)C(C)O (stereo not drawn) [meso-2,3-butanediol]
0.4 nmol/min/mg of crude protein: Rate of 2-butanone formation (glycerol dehydratase)

CC(O)C(C)O (stereo not drawn) [2,3-butanediol]
less than 1%: Activity relative to the activity towards ethanediol [2]
